Numbering of substitutions follows the chain as printed.
Legend:
RET kinase G810S = RET kinase G810S (Homo sapiens, UniProt P07949, G810S); assay: RET Enzyme Assay (HTRF KinEASE-TK), G810S; type: biochemical
[1] = target: T1, HEK-293 cells expressing a G810R mutant RET Kif5b-RET fusion protein (Homo sapiens, UniProt P07949, G810R); assay: RET G810R Mutant Cell Assay (phospho-RET Tyr1062); type: cell-based; conditions: 1 hour with compound, phospho-RET(Tyr1062) normalized to GAPDH
T1 construct: expressed in transfected cells; host or cells: HEK-293; the other entry of the earlier key: KIF5B (P33176, Kinesin-1 heavy chain)
T1 sequence (P07949 713-1063 G810R limits assumed): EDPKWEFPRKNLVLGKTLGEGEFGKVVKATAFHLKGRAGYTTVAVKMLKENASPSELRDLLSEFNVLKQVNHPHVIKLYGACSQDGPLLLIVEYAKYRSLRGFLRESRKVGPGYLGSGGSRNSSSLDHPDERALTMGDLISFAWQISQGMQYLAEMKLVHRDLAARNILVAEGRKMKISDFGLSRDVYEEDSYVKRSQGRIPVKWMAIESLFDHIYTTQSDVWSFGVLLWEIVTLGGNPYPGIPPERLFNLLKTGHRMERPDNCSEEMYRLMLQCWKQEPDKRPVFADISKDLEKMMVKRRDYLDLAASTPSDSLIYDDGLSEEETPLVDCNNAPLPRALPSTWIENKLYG
Protocol: RET G810R and G810S Mutant Cell Assay
(§1) The cellular potency of compounds inhibiting RET kinase were determined in HEK-293 cells expressing a G810R or G810S mutant RET Kif5b-RET fusion protein. Briefly, HEK-293 cells expressing a G810R or G810S mutant RET Kif5b-RET fusion protein were plated at 50K cells/well in 96 well poly-D-Lysine coated plates the day prior to the assay. The cells were incubated for 1 hour with test compound in DMEM (Dulbecco's Modified Eagle Medium) at a final DMSO concentration of 0.5%. […] After 1 hour the media was removed, the cells were fixed with 3.8% formaldehyde for 20 min, washed with PBS, and permeabilized for 10 min with 100% methanol. […] All antibodies were diluted in LI-COR Block containing 0.05% Tween. The plates were washed with PBS-0.05% Tween20, 100 μL PBS was added to each well, and the plates were read on a LI-COR Aerius fluorescent plate reader. The phospho-RET signal was normalized to the GAPDH signal. 100 POC (percent of control) was determined using no test compounds and 0 POC was determined using 1 μM of a control inhibitor. The POC values are fit to a 4 parameter logistic curve. The IC50 value is the point where the curve crosses 50 POC.

RET kinase G810R = RET kinase G810R (Homo sapiens, UniProt P07949, G810R); assay: RET Enzyme Assay (HTRF KinEASE-TK), G810R; type: biochemical
Sequence of RET kinase G810R (P07949 29-1114 G810R): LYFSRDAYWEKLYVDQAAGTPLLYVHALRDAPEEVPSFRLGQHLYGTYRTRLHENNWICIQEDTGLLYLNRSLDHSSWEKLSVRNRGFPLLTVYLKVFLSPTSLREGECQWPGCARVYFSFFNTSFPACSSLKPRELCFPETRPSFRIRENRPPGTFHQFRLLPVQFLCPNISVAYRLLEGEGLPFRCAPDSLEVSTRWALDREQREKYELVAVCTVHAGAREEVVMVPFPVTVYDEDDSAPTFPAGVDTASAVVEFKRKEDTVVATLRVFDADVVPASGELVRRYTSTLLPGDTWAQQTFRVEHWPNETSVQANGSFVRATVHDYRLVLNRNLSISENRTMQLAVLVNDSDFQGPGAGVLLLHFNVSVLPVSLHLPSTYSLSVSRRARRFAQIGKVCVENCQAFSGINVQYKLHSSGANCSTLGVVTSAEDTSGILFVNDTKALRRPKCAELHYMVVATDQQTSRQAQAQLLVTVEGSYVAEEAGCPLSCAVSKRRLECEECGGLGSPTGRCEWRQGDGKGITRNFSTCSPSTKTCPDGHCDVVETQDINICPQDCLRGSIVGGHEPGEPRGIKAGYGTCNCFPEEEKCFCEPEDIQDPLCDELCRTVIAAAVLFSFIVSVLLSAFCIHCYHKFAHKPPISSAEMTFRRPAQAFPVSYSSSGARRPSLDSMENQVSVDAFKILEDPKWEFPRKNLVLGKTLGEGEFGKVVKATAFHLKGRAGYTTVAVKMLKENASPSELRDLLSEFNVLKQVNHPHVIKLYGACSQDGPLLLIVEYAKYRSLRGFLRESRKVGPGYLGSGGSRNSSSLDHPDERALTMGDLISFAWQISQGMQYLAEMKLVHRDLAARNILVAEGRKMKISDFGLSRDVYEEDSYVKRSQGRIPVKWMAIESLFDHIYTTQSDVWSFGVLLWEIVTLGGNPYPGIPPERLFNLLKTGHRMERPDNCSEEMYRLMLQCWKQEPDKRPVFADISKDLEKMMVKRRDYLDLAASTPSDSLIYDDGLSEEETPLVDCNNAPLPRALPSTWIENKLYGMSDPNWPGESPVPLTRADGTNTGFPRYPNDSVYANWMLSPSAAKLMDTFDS

[2] = target: T2, HEK-293 cells expressing a Kif5b-RET fusion protein (Homo sapiens, UniProt P07949); assay: RET Cell Assay (phospho-RET Tyr1062); type: cell-based; conditions: 1 hour with compound, phospho-RET(Tyr1062) normalized to GAPDH, read-out: KIF5B-RET pTYR1062 Cell IC50
T2 construct: expressed in transfected cells; host or cells: HEK-293; the other entry of the earlier key: KIF5B (P33176, Kinesin-1 heavy chain)
T2 sequence (P07949 713-1063 limits assumed): T1 sequence (P07949 713-1063 G810R limits assumed) with R98G
Protocol: as §1, with “a” for “a G810R or G810S mutant RET”, “PBS is” for “PBS was”, “values were” for “values are”

RET kinase M918T = RET kinase M918T (Homo sapiens, UniProt P07949, M918T); assay: RET Enzyme Assay (HTRF KinEASE-TK), M918T; type: biochemical
Sequence of RET kinase M918T (P07949 29-1114 M918T): as the sequence (P07949 29-1114 G810R) above, with R782G, M890T counted along it

RET kinase Wild Type = RET kinase Wild Type (Homo sapiens, UniProt P07949); assay: RET Enzyme Assay (HTRF KinEASE-TK), Wild Type; type: biochemical
Sequence of RET kinase Wild Type (P07949 29-1114): as the sequence (P07949 29-1114 G810R) above, with R782G counted along it

RET kinase V804M = RET kinase V804M (Homo sapiens, UniProt P07949, V804M); assay: RET Enzyme Assay (HTRF KinEASE-TK), V804M; type: biochemical
Sequence of RET kinase V804M (P07949 29-1114 V804M): as the sequence (P07949 29-1114 G810R) above, with V776M, R782G counted along it

Sequence of RET kinase G810S (P07949 29-1114 G810S): as the sequence (P07949 29-1114 G810R) above, with R782S counted along it

IC50 (RET kinase G810S) [nM]	IC50 [1] [nM]	IC50 (RET kinase G810R) [nM]	IC50 [2] [nM]	IC50 (RET kinase M918T) [nM]	IC50 (RET kinase Wild Type) [nM]	IC50 (RET kinase V804M) [nM]	SMILES
1.4	137	1.4	24	0.2	0.3	0.6	CC(C)n1nc(-c2noc(C3CC3)c2C2=CCCCO2)c2c(N)ncnc21 [Example 9, 3-(5-cyclopropyl-4-(3,4-dihydro-2H-pyran-6-yl)isoxazol-3-yl)-1-isopropyl-1H-pyrazolo[3,4-d]pyrimidin-4-amine]
6.3	263	6.3	42	1.6	1.3	6.5	CC(C)n1nc(-c2noc(C3CC3)c2C2=CCC(C)(O)CC2)c2c(N)ncnc21 (stereo not shown) [Example 15, 4-(3-(4-amino-1-isopropyl-1H-pyrazolo[3,4-d]pyrimidin-3-yl)-5-cyclopropylisoxazol-4-yl)-1-methylcyclohex-3-en-1-ol]
17.9	342	19.5	36	4.1	2.1	260	Cc1cc(-c2nn(C(C)C)c3ncnc(N)c23)n(C2CCCCO2)n1 (stereo not shown) [Example 21, 1-isopropyl-3-(3-methyl-1-(tetrahydro-2H-pyran-2-yl)-1H-pyrazol-5-yl)-1H-pyrazolo[3,4-d]pyrimidin-4-amine]
4.9	86	4.1	35	1.5	1.2	7	CC(C)n1nc(-c2noc(C3CC3)c2C2=CCC(O)CC2)c2c(N)ncnc21 (stereo not shown) [Example 14, 4-(3-(4-amino-1-isopropyl-1H-pyrazolo[3,4-d]pyrimidin-3-yl)-5-cyclopropylisoxazol-4-yl)cyclohex-3-en-1-ol]
4	162	3.6	28	0.7	0.6	1.3	CC(C)n1nc(-c2noc(C3CC3)c2C2CCCCO2)c2c(N)ncnc21 (stereo not shown) [Example 16, 3-(5-cyclopropyl-4-(tetrahydro-2H-pyran-2-yl)isoxazol-3-yl)-1-isopropyl-1H-pyrazolo[3,4-d]pyrimidin-4-amine]
46	10000	15.8	344	8.5	4.1	27.4	CC(C)n1nc(-c2ccnn2C2CCCCO2)c2c(N)ncnc21 (stereo not shown) [Example 23, 1-isopropyl-3-(1-(tetrahydro-2H-pyran-2-yl)-1H-pyrazol-5-yl)-1H-pyrazolo[3,4-d]pyrimidin-4-amine]
13	214	16.5	21	3	2.3	307	C=Cc1cc(-c2nn(C(C)C)c3ncnc(N)c23)n(C2CCCCO2)n1 (stereo not shown) [Example 22, 1-isopropyl-3-(1-(tetrahydro-2H-pyran-2-yl)-3-vinyl-1H-pyrazol-5-yl)-1H-pyrazolo[3,4-d]pyrimidin-4-amine]
3.7	264	2.2	68	0.8	0.7	7.5	CC(C)n1nc(-c2noc(C3CC3)c2C2CCOCC2)c2c(N)ncnc21 [Example 17, 3-(5-cyclopropyl-4-(tetrahydro-2H-pyran-4-yl)isoxazol-3-yl)-1-isopropyl-1H-pyrazolo[3,4-d]pyrimidin-4-amine]
24.1	628	28.9	40	6.1	3.9	418	CC(C)n1nc(-c2cc(C3CC3)nn2C2CCCCO2)c2c(N)ncnc21 (stereo not shown) [Example 19, 3-(3-cyclopropyl-1-(tetrahydro-2H-pyran-2-yl)-1H-pyrazol-5-yl)-1-isopropyl-1H-pyrazolo[3,4-d]pyrimidin-4-amine]
4.4	247	4.4	75	1.1	1.2	2.1	CC(C)n1nc(-c2noc(C3CC3)c2-c2ccn(C)n2)c2c(N)ncnc21 [Example 2, 3-(5-cyclopropyl-4-(1-methyl-1H-pyrazol-3-yl)isoxazol-3-yl)-1-isopropyl-1H-pyrazolo[3,4-d]pyrimidin-4-amine]

Reference: patent US11524963B2, “Substituted pyrazolo[3,4-d]pyrimidines as RET kinase inhibitors” (Array Biopharma Inc., priority 2018, dated 2022)
